Laboratory results taken from ChEMBL document CHEMBL1159144, “Novel pyridazino[4,5-b][1,5]oxazepines and -thiazepines as 5-HT1A receptor ligands” (Bioorg Med Chem Lett, 1997).

Experiments:
[1] = target: T1, 5-hydroxytryptamine receptor 1A (Rattus norvegicus, UniProt P19327); test: Binding affinity towards 5-hydroxytryptamine 1A receptor using receptor binding assay
T1 sequence (P19327 whole entry): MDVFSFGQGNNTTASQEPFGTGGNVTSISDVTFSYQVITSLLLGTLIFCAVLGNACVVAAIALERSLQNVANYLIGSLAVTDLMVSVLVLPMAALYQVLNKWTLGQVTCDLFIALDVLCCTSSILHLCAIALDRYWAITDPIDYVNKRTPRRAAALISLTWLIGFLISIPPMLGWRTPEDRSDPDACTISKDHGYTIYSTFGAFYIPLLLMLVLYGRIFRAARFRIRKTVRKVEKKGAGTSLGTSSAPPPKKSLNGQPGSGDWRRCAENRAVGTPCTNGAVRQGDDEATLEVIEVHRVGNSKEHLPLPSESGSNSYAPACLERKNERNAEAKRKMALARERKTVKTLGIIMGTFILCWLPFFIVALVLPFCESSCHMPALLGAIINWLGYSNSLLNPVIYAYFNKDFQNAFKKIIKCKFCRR

[2] = target: T2, Adrenergic receptor alpha-2 (Rattus norvegicus, UniProt P22086+P19328+P22909); test: Binding affinity towards Alpha-2 adrenergic receptor; assay type: protein assay
T2 sequence (P22086 whole entry): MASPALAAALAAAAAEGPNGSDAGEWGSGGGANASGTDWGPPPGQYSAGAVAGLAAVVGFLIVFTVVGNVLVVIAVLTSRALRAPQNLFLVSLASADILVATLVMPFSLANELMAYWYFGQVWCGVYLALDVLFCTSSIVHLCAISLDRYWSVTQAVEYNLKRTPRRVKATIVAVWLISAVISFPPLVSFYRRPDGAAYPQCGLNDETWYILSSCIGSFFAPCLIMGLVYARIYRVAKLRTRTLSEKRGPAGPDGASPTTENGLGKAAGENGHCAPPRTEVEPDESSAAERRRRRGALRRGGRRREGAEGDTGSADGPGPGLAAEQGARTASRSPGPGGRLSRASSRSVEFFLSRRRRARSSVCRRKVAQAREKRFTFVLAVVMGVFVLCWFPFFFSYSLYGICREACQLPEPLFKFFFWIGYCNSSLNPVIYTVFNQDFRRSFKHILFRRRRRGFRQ
T2 sequence (P19328 whole entry): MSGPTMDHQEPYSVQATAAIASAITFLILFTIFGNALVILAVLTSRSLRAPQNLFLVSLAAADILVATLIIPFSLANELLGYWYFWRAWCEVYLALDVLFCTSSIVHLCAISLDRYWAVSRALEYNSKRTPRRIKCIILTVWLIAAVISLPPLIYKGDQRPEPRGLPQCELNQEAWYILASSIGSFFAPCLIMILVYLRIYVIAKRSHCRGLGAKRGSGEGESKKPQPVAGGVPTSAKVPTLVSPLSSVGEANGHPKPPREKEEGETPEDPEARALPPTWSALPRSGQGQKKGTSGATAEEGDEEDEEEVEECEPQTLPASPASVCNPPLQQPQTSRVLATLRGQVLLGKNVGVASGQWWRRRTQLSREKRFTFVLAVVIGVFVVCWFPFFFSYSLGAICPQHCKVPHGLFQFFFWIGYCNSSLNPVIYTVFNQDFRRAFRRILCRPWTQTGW
T2 sequence (P22909 whole entry): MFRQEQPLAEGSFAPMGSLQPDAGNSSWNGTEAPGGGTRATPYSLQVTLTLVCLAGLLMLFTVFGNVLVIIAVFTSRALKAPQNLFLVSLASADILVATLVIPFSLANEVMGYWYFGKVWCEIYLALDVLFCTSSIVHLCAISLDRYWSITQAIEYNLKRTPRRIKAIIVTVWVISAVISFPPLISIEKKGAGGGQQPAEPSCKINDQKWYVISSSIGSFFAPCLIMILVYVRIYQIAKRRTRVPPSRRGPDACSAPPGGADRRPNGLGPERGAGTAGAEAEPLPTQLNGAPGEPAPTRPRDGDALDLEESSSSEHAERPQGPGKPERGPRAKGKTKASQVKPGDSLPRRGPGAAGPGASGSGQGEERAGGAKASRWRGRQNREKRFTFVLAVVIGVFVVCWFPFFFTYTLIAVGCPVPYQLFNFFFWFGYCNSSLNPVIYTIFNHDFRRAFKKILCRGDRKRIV

[3] = target: T3, Adrenergic receptor alpha-1 (Rattus norvegicus, UniProt P15823+P23944+P43140); test: Binding affinity towards Alpha-1 adrenergic receptor; assay type: protein assay
T3 sequence (P15823 whole entry): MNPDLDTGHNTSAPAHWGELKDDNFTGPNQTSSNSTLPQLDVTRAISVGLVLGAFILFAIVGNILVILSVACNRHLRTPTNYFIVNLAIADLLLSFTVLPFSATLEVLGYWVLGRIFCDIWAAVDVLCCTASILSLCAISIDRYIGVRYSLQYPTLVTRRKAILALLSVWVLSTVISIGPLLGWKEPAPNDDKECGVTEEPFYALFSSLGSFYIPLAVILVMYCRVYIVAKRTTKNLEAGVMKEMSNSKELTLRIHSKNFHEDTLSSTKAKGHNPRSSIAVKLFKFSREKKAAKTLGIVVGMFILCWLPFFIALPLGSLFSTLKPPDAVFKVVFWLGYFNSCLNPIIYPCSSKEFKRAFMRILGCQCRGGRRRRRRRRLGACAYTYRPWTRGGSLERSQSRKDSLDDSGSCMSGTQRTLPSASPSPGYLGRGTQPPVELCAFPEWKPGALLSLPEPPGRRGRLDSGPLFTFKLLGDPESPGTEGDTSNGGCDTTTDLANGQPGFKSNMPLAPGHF
T3 sequence (P23944 whole entry): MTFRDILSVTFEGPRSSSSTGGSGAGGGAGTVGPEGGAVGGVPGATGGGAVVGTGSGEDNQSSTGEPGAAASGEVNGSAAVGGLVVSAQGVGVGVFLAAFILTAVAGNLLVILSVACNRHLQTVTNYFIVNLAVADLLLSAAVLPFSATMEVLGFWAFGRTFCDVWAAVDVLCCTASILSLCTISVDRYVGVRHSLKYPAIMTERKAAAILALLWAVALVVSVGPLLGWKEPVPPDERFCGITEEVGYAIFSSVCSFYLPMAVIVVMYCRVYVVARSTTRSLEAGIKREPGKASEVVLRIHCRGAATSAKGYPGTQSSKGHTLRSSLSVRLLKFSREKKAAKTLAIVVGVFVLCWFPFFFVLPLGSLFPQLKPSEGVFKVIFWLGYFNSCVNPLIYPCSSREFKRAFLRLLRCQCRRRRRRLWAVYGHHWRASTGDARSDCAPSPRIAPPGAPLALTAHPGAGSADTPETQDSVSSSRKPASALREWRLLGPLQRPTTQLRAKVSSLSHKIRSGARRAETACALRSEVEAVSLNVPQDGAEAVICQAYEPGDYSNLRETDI
T3 sequence (P43140 whole entry): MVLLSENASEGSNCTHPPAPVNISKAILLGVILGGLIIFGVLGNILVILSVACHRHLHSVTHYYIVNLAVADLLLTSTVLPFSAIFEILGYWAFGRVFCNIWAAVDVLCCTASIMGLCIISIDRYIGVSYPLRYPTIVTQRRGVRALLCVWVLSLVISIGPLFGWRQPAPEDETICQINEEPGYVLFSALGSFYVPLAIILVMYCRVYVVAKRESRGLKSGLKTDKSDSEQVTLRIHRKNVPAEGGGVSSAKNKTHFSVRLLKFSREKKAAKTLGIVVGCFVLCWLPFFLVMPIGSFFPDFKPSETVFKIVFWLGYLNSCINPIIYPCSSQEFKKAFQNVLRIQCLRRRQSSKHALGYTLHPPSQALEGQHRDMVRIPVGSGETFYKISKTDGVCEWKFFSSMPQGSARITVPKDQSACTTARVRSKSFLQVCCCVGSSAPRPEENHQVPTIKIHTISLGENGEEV

COc1ccccc1OCCN(C)CCC(=O)N1CCCOc2c1cnn(C)c2=O was tested, and the IC50 [1] was 134 nM, the IC50 [2] was 9500 nM and the IC50 [3] was 16100 nM.

Work on COc1ccccc1OCCNCCC(=O)N1CCCSc2c1cnn(C)c2=O yielded an IC50 [1] of 11.4 nM, an IC50 [2] of 270 nM and an IC50 [3] of 1700 nM.

COc1ccccc1OCCN(CCC(=O)N1CCCOc2c1cnn(C)c2=O)Cc1ccccc1 showed an IC50 [1] of 1000 nM.

CCSc1c(N(C)C(=O)CCNCCOc2ccccc2OC)cnn(C)c1=O gave an IC50 [1] of 32.7 nM.

COc1ccccc1OCCNCCCC(=O)N1CCCSc2c1cnn(C)c2=O showed an IC50 [1] of 9.2 nM, an IC50 [2] of 860 nM and an IC50 [3] of 930 nM.

In the case of Cn1ncc2c(c1=O)SCCCN2C(=O)CCNCCOc1cccc(Cl)c1, the IC50 [1] is reported as 181 nM.

Cn1ncc2c(c1=O)SCCCN2C(=O)CCNCCOc1ccccc1 was tested, and the IC50 [1] was 150 nM.

In the case of COc1ccccc1OCC(O)CN1CCN(CCC(=O)N2CCCOc3c2cnn(C)c3=O)CC1 (stereo unspecified), the IC50 [1] is reported as > 1000 nM, the IC50 [2] is reported as 47000 nM and the IC50 [3] is reported as > 10000 nM.

Work on COc1ccccc1OCCNCCCC(=O)N1CCCOc2c1cnn(C)c2=O yielded an IC50 [1] of 17.8 nM, an IC50 [2] of 3900 nM and an IC50 [3] of 690 nM.

Molecule Cn1ncc2c(c1=O)OCCCN2C(=O)CNCCOc1ccccc1 has an IC50 [1] of 230 nM.

Cn1ncc2c(c1=O)OCCCN2C(=O)CCNCCOc1cccc(Cl)c1 was tested, and the IC50 [1] was 312 nM.

For COc1ccccc1OCCNCC(=O)N1CCCSc2c1cnn(C)c2=O, the IC50 [1] was 37 nM, the IC50 [2] was 3100 nM and the IC50 [3] was > 10000 nM.

Work on COc1cccc(OCC(O)CN2CCN(CCC(=O)N3CCCSc4c3cnn(C)c4=O)CC2)c1 (stereo unspecified) yielded an IC50 [1] of 118 nM.

In the case of COc1ccccc1OCCNC(C)C(=O)N1CCCOc2c1cnn(C)c2=O (stereo unspecified), the IC50 [1] is reported as > 1000 nM.

COc1ccccc1OCCNCCC(=O)N1CCCOc2c1cnn(C)c2=O showed an IC50 [1] of 19.5 nM, an IC50 [2] of 1800 nM and an IC50 [3] of 1700 nM.

For Cn1ncc2c(c1=O)SCCCN2C(=O)CNCC1COc2ccccc2O1 (stereo unspecified), the IC50 [1] was 44.9 nM, the IC50 [2] was 2330 nM and the IC50 [3] was 19000 nM.

With COc1ccccc1OCC(O)CN1CCN(CC(=O)N2CCCOc3c2cnn(C)c3=O)CC1 (stereo unspecified) the IC50 [1] was > 1000 nM.

For COc1ccccc1OCCN(C)CCCN1CCCSc2c1cnn(C)c2=O, the IC50 [1] was > 1000 nM.

With COc1ccccc1OCCNC(C)C(=O)N1CCCSc2c1cnn(C)c2=O (stereo unspecified) the IC50 [1] was > 1000 nM.

With Cn1ncc2c(c1=O)OCCCN2C(=O)CNCC1COc2ccccc2O1 (stereo unspecified) the IC50 [1] was 299 nM, the IC50 [2] was 4600 nM and the IC50 [3] was > 10000 nM.

In the case of COc1ccccc1OCCN(CCC(=O)N1CCCSc2c1cnn(C)c2=O)Cc1ccccc1, the IC50 [1] is reported as > 1000 nM.

Work on COc1ccccc1OCCNCC(=O)N1CCCOc2c1cnn(C)c2=O yielded an IC50 [1] of 163 nM, an IC50 [2] of 21000 nM and an IC50 [3] of 12500 nM.

For COc1ccccc1N1CCN(CC(=O)N2CCCOc3c2cnn(C)c3=O)CC1, the IC50 [1] was > 1000 nM.

Cn1ncc2c(c1=O)OCCCN2C(=O)CCNCCOc1ccccc1 gave an IC50 [1] of 524 nM, an IC50 [2] of 540 nM and an IC50 [3] of 8900 nM.
